Test results published in patent US20160102052A1, “Use of Cysteamine in Treating Infections caused by Yeasts/Moulds” (priority 2014, published 2016).

Columns and labels:
Assay in all cases: MIC of clinical antifungals, CLSI M38-A2 broth microdilution
Format in all cases: cell-based
[1] = system: Candida parapsilosis ATCC 22019; conditions: Lodderomyces parapsilosis; for MIC50 / MIC80: ATCC22019, RPMI-1640; for MIC: ATCC22019, RPMI-1640, read-out: MIC100
Method: (§1) Two Candida spp. strains (C. krusei ATCC6258 & C. parapsilosis ATCC22019) and Exophiala jeanselmei reference strain NCPF2377 were also tested. These acted as quality control strains. Flat-bottomed Nunc Plates were prepared containing a serial doubling dilution of antifungals at 2× final concentration. […] These were incubated at 35° C. and read at 24 h and 48 h (Candida spp.) or 120 h (Exophiala spp.) on a BioTek plate reader at 530 nm. • 7. Culture of Candida spp. grown on Sabouraud dextrose agar slope overnight at 30° C. • 8. Exophiala cultures grown on potato dextrose agar slope for 6 days at 35° C. • 9. Cultures were removed from incubator and 2 ml sterile 0.15M NaCl was added to the overnight culture and spore and hyphal suspensions were harvested from the surface of the agar and transferred to a sterile plastic bijou tube. • a. Exophiala spp. cultures were allowed to rest for up to 10 min, allowing hyphae to settle to the bottom. The top layers of spores were transferred to a sterile plastic bijou tube. • 10. […] This is continued to A12 where 100 μl is removed and discarded. • f. This dilution series was repeated in rows B-D for the remaining 3 cultures • g. 0.5 McFarland Standard added to wells E1-E3 • h. Plate read at OD530 on BioTek. • i. Concentration of cells required will be the one that is the equivalent to the 0.5 McFarland Standard • 11. […] • 7. The highest final concentration on the plate will be as described in layouts at the end of the protocol. […] Wells A1-A3 and A7-A9 are prepared by the addition of 200 μl highest concentration of compound to the wells. • 10. All other wells contain 100 μl sterile dH2O. • 11. Serial dilutions are carried out from A1-A3 to B1-B3 whereby 100 μl is removed from A1-A3 and placed into B1-B3 and mixed well by pipetting. Then take 100 μl B1-B3 and place in C1-C3 and mix well. Take 100 μl from C1-C3 and add to D1-D3 and mix well. […] At H1-[…] μl is removed and added to A4-A6. The dilution series is carried down the plate in the same manner to wells G4-G6 where a final 100 μl is removed and discarded. H4-H6 contain water alone and will be untreated controls. • 12. The same procedure is repeated for the wells in columns A7-A9 and A10-A12. See plate layout at bottom of page. Inoculating Plates with Candida spp./Exophiala spp. • 5. […] Plates are read in the BioTek at OD530 nm. • 7. Plates are then placed in a plastic box which contains either a Petri dish of water. The box is sealed and incubated at 35° C. (Exophiala spp.) or 30° C. (Candida spp.). The presence of the water in the dish or on the tissue provides and environment of relatively high humidity. • 8. The OD530 of the Candida spp. plates are read after 24 h and 48 h, while the slower growing Exophiala spp. plates are read after 96 h and 120 h. • 9. Raw BioTek data is transformed using Gen5 software and represented graphically using GraphPad Prism 4 software and MICs determined.

[2] = system: Candida krusei ATCC 6258; conditions: Pichia kudriavzevii; for MIC50 / MIC80: ATCC6258, RPMI-1640; for MIC: ATCC6258, RPMI-1640, read-out: MIC100
Method: as §1

[3] = system: Exophiala jeanselmei NCPF 2377; conditions: NCPF2377, RPMI-1640, 35° C.; for MIC: read-out: MIC100
Method: as §1

[4] = system: Exophiala dermatitidis CA01; conditions: RPMI-1640, 35° C.; for MIC: read-out: MIC100
Method: as §1

SMILES | MIC50 [1] [µg/mL] | MIC80 [1] [µg/mL] | MIC [1] [µg/mL] | MIC50 [2] [µg/mL] | MIC80 [2] [µg/mL] | MIC [2] [µg/mL] | MIC50 [3] [µg/mL] | MIC80 [3] [µg/mL] | MIC [3] [µg/mL] | MIC50 [4] [µg/mL] | MIC80 [4] [µg/mL] | MIC [4] [µg/mL]
CC[C@H](C)C[C@H](C)CCCCCCCCC(=O)N[C@H]1C[C@@H](O)[C@@H](NCCN)NC(=O)[C@@H]2[C@@H](O)CCN2C(=O)[C@H]([C@H](O)CCN)NC(=O)[C@H]([C@H](O)[C@@H](O)c2ccc(O)cc2)NC(=O)[C@@H]2C[C@@H](O)CN2C(=O)[C@H]([C@@H](C)O)NC1=O [Caspofungin] | 1 | 2 | 64 | 0.5 | 1 | 1 | 0.125 | 64 | > 64 | 16 | 32 | 32
OC(Cn1cncn1)(Cn1cncn1)c1ccc(F)cc1F [Fluconazole] | 0.5 | 1 | 3.9 | 31.2 | 62.5 | 62.5 | 250 | 500 | 1000 | 250 | 500 | 500
CCC(C)n1ncn(-c2ccc(N3CCN(c4ccc(OCC5COC(Cn6cncn6)(c6ccc(Cl)cc6Cl)O5)cc4)CC3)cc2)c1=O (stereo not drawn) [Itraconazole] | 0.008 | 0.016 | 0.125 | 0.004 | 0.125 | 0.25 | 0.125 | 0.25 | 0.25 | 2 | > 32 | > 32
